Here are results for two molecules from PMC5884906, “Single Administration of HBK-15—a Triple 5-HT1A, 5-HT7, and 5-HT3 Receptor Antagonist—Reverses Depressive-Like Behaviors in Mouse Model of Depression Induced by Corticosterone” (Molecular Neurobiology, 2017).

The term pIC50 denotes −log10 of the IC50, conventionally taken in molar units. Usually pKi stands for −log10 of the Ki, conventionally taken in molar units.

The conditions of data set [1]: cited from earlier work; for effect on blood pressure after chronic treatment: antidepressant- and anxiolytic-like doses.
Data set [2] is described as follows: distribution to brain after i.v. and i.p. administration. The class given is in vivo, mice. Conditions: for Kp: brain and plasma, HBK-14 2.5 mg/kg, HBK-15 1.25 mg/kg, read-out: brain/plasma ratio. As for the experimental part: For pharmacokinetic study, HBK-14 and HBK-15 dissolved in saline were administered by an intravenous (i.v.) and intraperitoneal (i.p.) administration at a dose of 2.5 and 1.25 mg/kg, respectively. Blood samples were collected at 0 min (predose), 5 min, 15 min, 30 min, 60 min, 120 min, and 240 min after compounds administration. The blood and brain samples were collected under general anesthesia induced by i.p. injections of 50 mg/kg ketamine plus 8 mg/kg xylazine. Blood samples were collected into heparinized tubes. The samples were immediately centrifuged at 3500 rpm for 10 min, and plasma was collected. The brain and plasma samples were immediately frozen at −80 °C for further analysis.
The quantification of studied compounds in plasma and brain samples was accomplished using UFLC Nexera system (Shimadzu, Kyoto, Japan) coupled to the triple quadrupole mass spectrometer QTrap 5500 (Sciex, Framingham, MA, USA) equipped with Turbo V™ ion source. After preparation, the samples were injected (5 μL) onto Acquity UPLC BEH C18 (3.0 × 100 mm, 1.7 μm, Waters, Milford, MA, USA) analytical column. The mobile phases that consisted of ACN with 0.1% FA (A) and water with 0.1% FA (B) were delivered in isocratic elution mode (40% A, 60% B) at the flow rate of 550 μL/min. The total time of analysis was 8 min including 2 min of column equilibration.
An amount of 50 μL of sample (plasma or brain homogenate) was transferred into the clean Eppendorf tube and spiked with 5 μL of internal standard solution (IS, 1 μg/mL) obtaining the final concentration of 100 ng/mL. After 5 min of mixing (1500 rpm), proteins were precipitated using 150 μL ACN. After 10 min of samples shaking (1500 rpm), the incubation step was performed (10 min, 4 °C). Next, samples were centrifuged (10,000 rpm, 10 min, 4 °C) and the supernatant was transferred into chromatographic vial for LC/MS/MS analysis.
The brain homogenate was prepared maintaining the tissue: phosphate-buffered saline (PBS) ratio at 1:5. The homogenization was carried out employing IKA® T10 Basic ULTRA-TURRAX disperser (IKA Werke GmbH & Co. KG, Staufen, Germany). After homogenization, all samples were centrifuged (3000 rpm, 10 min, 4 °C) and 50 μL of supernatant was collected for further preparation. All samples were stored on ice during the preparation process.

Another data set has as its target D2 receptors. Further details: method as in unpublished results. Conditions: not measured here; ref unpublished results; read-out: D2 receptor antagonism IC50; cited from earlier work.
Another data set deals with 5-HT2A receptors. Further details: method as in unpublished results. Particulars: not measured here; ref unpublished results; read-out: 5-HT2A receptor antagonism IC50; cited from earlier work.
In another data set the test system is mice. Particulars: scopolamine-induced deficits; cited from earlier work.
Details of data set [3]: method as in unpublished results. Particulars: ref unpublished results; cited from earlier work.
Data set [4] addresses dopaminergic D2 receptors. Set-up: method as in PMID 26554929. Conditions: read-out: affinity for dopaminergic D2 receptors, Ki; cited from earlier work.
Data set [5] has as its target serotonergic 5-HT2A receptors. Further details: method as in PMID 26554929. Particulars: read-out: affinity for serotonergic 5-HT2A receptors, Ki; cited from earlier work.
Where [6] appears, read: mouse, other: intravenous and intraperitoneal (both arms), after i.v. and i.p. administration.

Structures are written as SMILES. pIC50, pKi: −log10 of the molar value. Like-named read-outs stand apart in the source and are kept apart here. Bounds are passed on as bounds.

For the molecule `COc1ccccc1N1CCN(CCOCCOc2c(C)cccc2C)CC1.Cl` [HBK-14, 1-[(2,6-Dimethylphenoxy)ethoxyethyl]-4-(2-methoxyphenyl)piperazine hydrochloride], the “effect on blood pressure after chronic treatment” value in data set [1] is recorded as “neither HBK-14 nor HBK-15 lowered blood pressure”. Also, the Kp in data set [2] (CD-1, mouse, ip) was 0.46; in data set [2] (CD-1, mouse, iv), 0.8; in data set [2] (setting [6]), below 1.

For `COc1ccccc1N1CCN(CCOCCOc2c(C)cccc2Cl)CC1.Cl` [HBK-15, 1-[(2-chloro-6-methylphenoxy)ethoxyethyl]-4-(2-methoxyphenyl)piperazine hydrochloride], the pIC50 was 7.17 on D2 receptors and 5.35 on 5-HT2A receptors. In addition, the “effect on blood pressure after chronic treatment” value in data set [1] is reported as “neither HBK-14 nor HBK-15 lowered blood pressure”. Moreover, the “hypotensive activity after single administration” value in data set [1] is recorded as “did not exhibit hypotensive activity”. Besides, the effect on memory result in the data set with mice was “showed memory-enhancing properties”. In addition, the “antipsychotic-like or cataleptogenic properties” value in data set [3] is given as “did not show antipsychotic-like or cataleptogenic properties”. Also, the Kp was 0.27 in data set [2] (CD-1, mouse, ip); 0.68 in data set [2] (CD-1, mouse, iv); below 1 in data set [2] (setting [6]). For the same molecule, the Tmax in data set [2] (CD-1, mouse, brain, ip, 1.25 mg/kg, read-out: time of maximal concentration in the brain (converted)) was 5 min. Further, the figures for the pKi in data set [4] and in data set [5] were 7.27 and 6.96, respectively.
